Blank lines part the entries; values can stand above or below the compound they belong to.
What was measured:
[1] = Inhibition of Arabidopsis thaliana IspD
[2] = Inhibition of wild type Plasmodium falciparum IspD extracted from Escherichia coli BL21 (DE3)
[3] = Inhibition of Plasmodium falciparum IspD
[4] = Inhibition of Plasmodium falciparum 3D7 IspD
[5] = Inhibition of Plasmodium vivax IspD

SMILES: Cc1ccc(C)n1-c1ccc([N+](=O)[O-])cc1C(=O)O
IC50 [3]: 271 µM

SMILES: Oc1c(Br)cc(Br)cc1-c1cc(C(F)(F)F)no1
IC50 [1]: 9.3 µM

SMILES: Oc1ccc(Br)cc1-c1cc(C(F)(F)F)no1
IC50 [1]: 418 µM

SMILES: Oc1c(Br)cc(Br)cc1-c1ccno1
IC50 [1]: 121 µM

SMILES: CC(C)CCn1c(N)c(-c2nc3ccccc3[nH]2)c2nc3ccccc3nc21
IC50 [1]: 1.6 µM

SMILES: Oc1ccc(Br)cc1-c1ccno1
IC50 [1]: > 500 µM

SMILES: CCN(CC)CCCC(C)n1c(N)c(-c2nc3ccccc3[nH]2)c2nc(C#N)c(C#N)nc21 (configuration not stated)
IC50 [1]: 50 µM

SMILES: Oc1c(Br)cc(Br)cc1-c1[nH]c(Br)c(Br)c1Br [PENTABROMOPSEUDILIN]
IC50 [5]: 48 µM

SMILES: Oc1c(Cl)cc(Cl)cc1-c1[nH]c(Br)c(Br)c1Br [TRIBROMODICHLOROPSEUDILIN]
IC50 [5]: 56 µM

Further lines, results first:

IC50 [1]: 35 µM
SMILES: N#Cc1cnn2c(O)c(Cc3ccccc3)c(Cl)nc12

IC50 [1]: 1.8 µM
SMILES: COc1ccc2nc(NC(=O)c3cc(-c4ccccc4O)n[nH]3)sc2c1

IC50 [1]: 6.3 µM
SMILES: COc1ccc2nc(NC(=O)COc3ccc(-c4ccccc4)cc3)sc2c1

IC50 [2]: 0.25 µM
SMILES: O=C(O)[C@@H]1Cc2c([nH]c3ccccc23)[C@@H](c2ccc(Cl)cc2Cl)N1

IC50 [2]: 0.047 µM
SMILES: O=C(O)[C@H]1Cc2c([nH]c3ccccc23)[C@H](c2ccc(Cl)cc2Cl)N1

IC50 [2]: 0.17 µM
SMILES: O=C(O)[C@H]1Cc2c([nH]c3ccccc23)[C@@H](c2ccc(Cl)cc2Cl)N1

IC50 [1]: 274 µM
SMILES: O=C(O)c1cnn2c(O)c(Cc3ccccc3)c(Cl)nc12

IC50 [4]: 1.1 µM
IC50 [3]: 0.073 µM
IC50 [5]: 0.057 µM
SMILES: O=c1c2ccccc2sn1-c1cccc(-c2ccc(Cl)cc2)c1

IC50 [4]: 4.3 µM
IC50 [3]: 0.45 µM
IC50 [5]: 0.045 µM
SMILES: Cc1ccc(-n2sc3ccccc3c2=O)cc1S(=O)(=O)N1CCOCC1

From ChEMBL document CHEMBL6096684, “Targeting IspD for Anti-infective and Herbicide Development: Exploring Its Role, Mechanism, and Structural Insights” (J Med Chem, 2025)
